Measured values: patent US11000033B2, “Ketone or oxime compound, and herbicide” (NISSAN CHEMICAL CORPORATION, priority 2014, dated 2021)

Experiments:
Lolium multiflorum Lam. = test: Test Example 5: herbicidal effect by foliage application, plastic box (symbol K); format: in vivo; settings: 320 g/ha, 3 weeks after application
Outline: (§1)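 Effect is rated 3 weeks after a foliar spray of water-diluted emulsion concentrate at a predetermined herbicide amount. Plants had grown 14 days in a 25° C. to 30° C. greenhouse from seed in sterilized diluvial soil.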

Setaria viridis = test: Test Example 5: herbicidal effect by foliage application, plastic box (symbol G); format: in vivo; settings: 320 g/ha, 3 weeks after application
Outline: as §1

Avena fatua = test: Test Example 5: herbicidal effect by foliage application, plastic box (symbol I); format: in vivo; settings: 320 g/ha, 3 weeks after application
Outline: as §1

Amaranthus retroflexus = test: Test Example 5: herbicidal effect by foliage application, plastic box (symbol N); format: in vivo; settings: 320 g/ha, 3 weeks after application
Outline: as §1

Apera spica-venti = test: Test Example 5: herbicidal effect by foliage application, plastic box (symbol L); format: in vivo; settings: 320 g/ha, 3 weeks after application
Outline: as §1

Alopecurus myosuroides = test: Test Example 5: herbicidal effect by foliage application, plastic box (symbol J); format: in vivo; settings: 320 g/ha, 3 weeks after application
Outline: as §1

Digitaria ciliaris = test: Test Example 5: herbicidal effect by foliage application, plastic box (symbol F); format: in vivo; settings: 320 g/ha, 3 weeks after application
Outline: as §1

Veronica persica = test: Test Example 5: herbicidal effect by foliage application, plastic box (symbol R); format: in vivo; settings: 320 g/ha, 3 weeks after application
Outline: as §1

soybean = test: Test Example 5: effect on crop by foliage application, plastic box (symbol d); format: in vivo; settings: 320 g/ha, 3 weeks after application
Outline: (§2)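 Box culture: sterile diluvial soil, seeds spot-sown, ~1.5 cm cover, raised under glass at 25–30° C.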

Abutilon theophrasti = test: Test Example 5: herbicidal effect by foliage application, plastic box (symbol M); format: in vivo; settings: 320 g/ha, 3 weeks after application
Outline: as §1

rice plant = test: Test Example 5: effect on crop by foliage application, plastic box (symbol b); format: in vivo; settings: 320 g/ha, 3 weeks after application
Outline: as §2

Stellaria media = test: Test Example 5: herbicidal effect by foliage application, plastic box (symbol P); format: in vivo; settings: 320 g/ha, 3 weeks after application
Outline: as §1

[1] = system: Echinochloa crus-galli var. crus-galli; test: Test Example 5: herbicidal effect by foliage application, plastic box (symbol H); format: in vivo; settings: 320 g/ha, 3 weeks after application
Outline: as §1

corn = test: Test Example 5: effect on crop by foliage application, plastic box (symbol c); format: in vivo; settings: 320 g/ha, 3 weeks after application
Outline: as §2

beet = test: Test Example 5: effect on crop by foliage application, plastic box (symbol f); format: in vivo; settings: 320 g/ha, 3 weeks after application
Outline: as §2

wheat = test: Test Example 5: effect on crop by foliage application, plastic box (symbol e); format: in vivo; settings: 320 g/ha, 3 weeks after application
Outline: as §2

rapeseed = test: Test Example 5: effect on crop by foliage application, plastic box (symbol g); format: in vivo; settings: 320 g/ha, 3 weeks after application
Outline: as §2

| melting point [°C] | SMILES | K: Lolium multiflorum Lam., herbicidal effect grade (Lolium multiflorum Lam.) | G: Setaria viridis, herbicidal effect grade (Setaria viridis) | I: Avena fatua, herbicidal effect grade (Avena fatua) | N: Amaranthus retroflexus, herbicidal effect grade (Amaranthus retroflexus) | L: Apera spica-venti, herbicidal effect grade (Apera spica-venti) | J: Alopecurus myosuroides, herbicidal effect grade (Alopecurus myosuroides) | F: Digitaria ciliaris, herbicidal effect grade (Digitaria ciliaris) | R: Veronica persica, herbicidal effect grade (Veronica persica) | d: soybean, effect on crop grade (soybean) | M: Abutilon theophrasti, herbicidal effect grade (Abutilon theophrasti) | b: directly sowed rice plant, effect on crop grade (rice plant) | P: Stellaria media, herbicidal effect grade (Stellaria media) | H: Echinochloa crus-galli var. crus-galli, herbicidal effect grade [1] | c: corn, effect on crop grade (corn) | f: beet, effect on crop grade (beet) | e: wheat, effect on crop grade (wheat) | g: rapeseed, effect on crop grade (rapeseed) |
| --- | --- | --- | --- | --- | --- | --- | --- | --- | --- | --- | --- | --- | --- | --- | --- | --- | --- | --- |
| 82 to 85 | CON=C(C)CC1CC(OC)=C(c2c(C)cc(OC)cc2C)C1=O (stereo not shown) [6-048] |  |  |  |  |  |  |  |  |  |  |  |  |  |  |  |  |  |
| 181 to 183 | CON=C(C)CC1CC(O)=C(c2c(C)cc([N+](=O)[O-])cc2C)C1=O (stereo not shown) [6-032] | 0 (Herbicidal ratio of 5% or lower (almost no effect)) | 3 (Herbicidal ratio of 40% or higher and lower than 70%) | 0 (Herbicidal ratio of 5% or lower (almost no effect)) | 0 (Herbicidal ratio of 5% or lower (almost no effect)) | 0 (Herbicidal ratio of 5% or lower (almost no effect)) | 0 (Herbicidal ratio of 5% or lower (almost no effect)) | 4 (Herbicidal ratio of 70% or higher and lower than 90%) | 0 (Herbicidal ratio of 5% or lower (almost no effect)) | 0 (Herbicidal ratio of 5% or lower (almost no effect)) | 0 (Herbicidal ratio of 5% or lower (almost no effect)) | 0 (Herbicidal ratio of 5% or lower (almost no effect)) | 0 (Herbicidal ratio of 5% or lower (almost no effect)) | 4 (Herbicidal ratio of 70% or higher and lower than 90%) | 0 (Herbicidal ratio of 5% or lower (almost no effect)) | 0 (Herbicidal ratio of 5% or lower (almost no effect)) | 0 (Herbicidal ratio of 5% or lower (almost no effect)) | 0 (Herbicidal ratio of 5% or lower (almost no effect)) |
